Source: patent publication US5571799A, “(2'-5') oligoadenylate analogues useful as inhibitors of host-v5.-graft response” (Basco, Ltd., priority 1994, dated 1996)

System: interleukin-II
Assay: Immune system of monkeys: interleukin-II
Assay type: in vivo, Macaque Rh. monkeys
Method: Immunosuppressive activity of the prototype 2'-5'A3 and two analogues (2'-5')A2 Ar-epoxy and (2'-5')A2 A^l-epoxy were investigated in monkeys. The experiments were performed on 4 year-old Macaque Rh. monkeys. The levels of the principal subpopulations of T-lymphocytes, IgA, IgG, IgM and the amount of α- and γ-interferon and interleukin II after administration (2'-5')olygoadenylate and its analogies at the concentration of 50 and 25 μg/kg of the body weight was investigated.
Serum levels of IgG, IgA, IgM were determined by radial immunodiffusion using antisera against human immunoglobulin A, M, G. The amount of interferon and interleukine-II were determined by the method of Lopez-Botet M. et al., 1982.

Adenylyl (2'-5')adenylyl (2'-5')-9-(2,3-anhydro-β-D-ribofuranosyl) adenine disodium salt [(2'-5')A2 Ar-epoxy]
effect on interleukin-II production, in words (monkeys, single IV, two weeks): suppresses production of interleukin-II
Interleukin-II (single IV 25 μg/kg, day 0 (baseline)): 4 Units per 10,000 lymphocytes
Interleukin-II (single IV 25 μg/kg, day 1): 2 Units per 10,000 lymphocytes
Interleukin-II (single IV 25 μg/kg, day 2): 2 Units per 10,000 lymphocytes
Interleukin-II (single IV 25 μg/kg, day 12): 2 Units per 10,000 lymphocytes
Interleukin-II (single IV 25 μg/kg, day 21): 4 Units per 10,000 lymphocytes
Interleukin-II (single IV 50 μg/kg, day 0 (baseline)): 8 Units per 10,000 lymphocytes
Interleukin-II (single IV 50 μg/kg, day 1): 4 Units per 10,000 lymphocytes
Interleukin-II (single IV 50 μg/kg, day 2): 4 Units per 10,000 lymphocytes
Interleukin-II (single IV 50 μg/kg, day 12): 4 Units per 10,000 lymphocytes
Interleukin-II (single IV 50 μg/kg, day 21): 4 Units per 10,000 lymphocytes
